{
  "source": "the NIST ThermoML archive (doi:10.1016/j.fluid.2015.05.016)",
  "key": {"[1]": {"test": "xn = mol fraction of the nth substance listed", "conditions": "298.15 K, 100 kPa, Liquid, Vibrating tube method"}, "[2]": {"test": "molar heat capacity at constant pressure; xn = mol fraction of the nth substance listed", "conditions": "298.15 K, 100 kPa, Liquid, Large sample (1 g) DSC"}, "[3]": {"conditions": "298.15 K; 101.33 kPa; Liquid; Vibrating tube method"}, "[4]": {"test": "molar heat capacity at constant pressure", "conditions": "298.15 K; 101.33 kPa; Liquid; Large sample (1 g) DSC"}},
  "note": "± gives the expanded uncertainty stated by the source.",
  "data": [
    {"smiles": "CO", "note": "[methanol] + CCCC(O)CO", "values": [
      {"measurement": "mass density", "setting": "[1]; x2 = 0", "value": "786.585 ± 0.24", "unit": "kg/m3"},
      {"measurement": "molar heat capacity at constant pressure", "setting": "[2]; x2 = 0", "value": "81.37 ± 1.3", "unit": "J/K/mol"}
    ]},
    {"smiles": "CCCC(O)CO", "note": "(stereo not drawn) [1,2-pentanediol] + CO", "values": [
      {"measurement": "mass density", "setting": "[1]; x1 = 0.073", "value": "832.04 ± 0.31", "unit": "kg/m3"},
      {"measurement": "mass density", "setting": "[1]; x1 = 0.31", "value": "886.031 ± 0.67", "unit": "kg/m3"},
      {"measurement": "mass density", "setting": "[1]; x1 = 0.5238", "value": "929.073 ± 1.2", "unit": "kg/m3"},
      {"measurement": "mass density", "setting": "[1]; x1 = 0.6142", "value": "931.181 ± 1.5", "unit": "kg/m3"},
      {"measurement": "mass density", "setting": "[1]; x1 = 0.7047", "value": "946.883 ± 1.8", "unit": "kg/m3"},
      {"measurement": "mass density", "setting": "[1]; x1 = 0.8127", "value": "950.977 ± 2.3", "unit": "kg/m3"},
      {"measurement": "mass density", "setting": "[1]; x1 = 0.914", "value": "961.834 ± 2.8", "unit": "kg/m3"},
      {"measurement": "mass density", "setting": "[1]; x1 = 1", "value": "966.678 ± 3.2", "unit": "kg/m3"},
      {"measurement": "molar heat capacity at constant pressure", "setting": "[2]; x1 = 0.073", "value": "94.77 ± 1.5", "unit": "J/K/mol"},
      {"measurement": "molar heat capacity at constant pressure", "setting": "[2]; x1 = 0.1773", "value": "114.15 ± 1.8", "unit": "J/K/mol"},
      {"measurement": "molar heat capacity at constant pressure", "setting": "[2]; x1 = 0.31", "value": "138.7 ± 2.1", "unit": "J/K/mol"},
      {"measurement": "molar heat capacity at constant pressure", "setting": "[2]; x1 = 0.3868", "value": "152.56 ± 2.4", "unit": "J/K/mol"},
      {"measurement": "molar heat capacity at constant pressure", "setting": "[2]; x1 = 0.5238", "value": "178.04 ± 2.8", "unit": "J/K/mol"},
      {"measurement": "molar heat capacity at constant pressure", "setting": "[2]; x1 = 0.6142", "value": "194.86 ± 3", "unit": "J/K/mol"},
      {"measurement": "molar heat capacity at constant pressure", "setting": "[2]; x1 = 0.7047", "value": "211.81 ± 3.3", "unit": "J/K/mol"},
      {"measurement": "molar heat capacity at constant pressure", "setting": "[2]; x1 = 0.8127", "value": "231.91 ± 3.6", "unit": "J/K/mol"},
      {"measurement": "molar heat capacity at constant pressure", "setting": "[2]; x1 = 0.914", "value": "250.63 ± 3.9", "unit": "J/K/mol"},
      {"measurement": "molar heat capacity at constant pressure", "setting": "[2]; x1 = 1", "value": "266.29 ± 4.1", "unit": "J/K/mol"}
    ]},
    {"smiles": "CCC(O)CO", "note": "(stereo not drawn) [1,2-butanediol]", "values": [
      {"measurement": "mass density", "setting": "[3]", "value": "998.505 ± 0.068", "unit": "kg/m3"}
    ]},
    {"smiles": "CO", "note": "[methanol]", "values": [
      {"measurement": "mass density", "setting": "[3]", "value": "786.585 ± 0.24", "unit": "kg/m3"},
      {"measurement": "molar heat capacity at constant pressure", "setting": "[4]", "value": "81.37 ± 1.4", "unit": "J/K/mol"}
    ]},
    {"smiles": "CC(O)CO", "note": "(stereo not drawn) [1,2-propanediol]", "values": [
      {"measurement": "mass density", "setting": "[3]", "value": "1032.55 ± 0.11", "unit": "kg/m3"},
      {"measurement": "molar heat capacity at constant pressure", "setting": "[4]", "value": "191.71 ± 3.2", "unit": "J/K/mol"}
    ]},
    {"smiles": "CC(O)CO", "note": "(stereo not drawn) [1,2-propanediol] + CO", "values": [
      {"measurement": "molar heat capacity at constant pressure", "setting": "[2]; x1 = 0.0743", "value": "89.47 ± 1.4", "unit": "J/K/mol"},
      {"measurement": "molar heat capacity at constant pressure", "setting": "[2]; x1 = 0.2305", "value": "106.48 ± 1.6", "unit": "J/K/mol"},
      {"measurement": "molar heat capacity at constant pressure", "setting": "[2]; x1 = 0.3354", "value": "118.08 ± 1.8", "unit": "J/K/mol"},
      {"measurement": "molar heat capacity at constant pressure", "setting": "[2]; x1 = 0.4104", "value": "126.35 ± 2", "unit": "J/K/mol"},
      {"measurement": "molar heat capacity at constant pressure", "setting": "[2]; x1 = 0.51", "value": "137.4 ± 2.1", "unit": "J/K/mol"},
      {"measurement": "molar heat capacity at constant pressure", "setting": "[2]; x1 = 0.6498", "value": "152.77 ± 2.4", "unit": "J/K/mol"},
      {"measurement": "molar heat capacity at constant pressure", "setting": "[2]; x1 = 0.7273", "value": "161.34 ± 2.5", "unit": "J/K/mol"},
      {"measurement": "molar heat capacity at constant pressure", "setting": "[2]; x1 = 0.7821", "value": "167.69 ± 2.6", "unit": "J/K/mol"},
      {"measurement": "molar heat capacity at constant pressure", "setting": "[2]; x1 = 0.8985", "value": "180.45 ± 2.8", "unit": "J/K/mol"},
      {"measurement": "molar heat capacity at constant pressure", "setting": "[2]; x1 = 1", "value": "191.71 ± 3", "unit": "J/K/mol"}
    ]},
    {"smiles": "CCCC(O)CO", "note": "(stereo not drawn) [1,2-pentanediol]", "values": [
      {"measurement": "mass density", "setting": "[3]", "value": "966.678 ± 3.2", "unit": "kg/m3"},
      {"measurement": "molar heat capacity at constant pressure", "setting": "[4]", "value": "266.29 ± 4.6", "unit": "J/K/mol"}
    ]},
    {"smiles": "CO", "note": "[methanol] + CC(O)CO", "values": [
      {"measurement": "molar heat capacity at constant pressure", "setting": "[2]; x2 = 0", "value": "81.37 ± 1.3", "unit": "J/K/mol"}
    ]}
  ]
}
